Laboratory results: article PMC10443802, “Targeting a xenobiotic transporter to ameliorate vincristine-induced sensory neuropathy” (JCI Insight, 2023)
Where “and” joins values, the source holds several entries; their conditions need not be identical. Equal values may be shown once.

Legend:
[1] = Plasma pharmacokinetics of nilotinib in mice; type: in vivo, mouse; details: OATP1B2(-/-) mice; for concentration at […]: DBA/1LacJ, mouse, plasma, oral, Plasma concentration of nilotinib
Procedure: Pharmacokinetic studies. Pharmacokinetic studies were performed following an established protocol […]
0.5% hydroxypropyl-methylcellulose in water) was administered at a dose of 10 mg/kg . Serial whole blood samples (0.25, 0.5, 1, 2, 4, and 6 h) were collected from the submandibular vein for the initial three time - points, from the retro-orbital sinus vein for the subsequent two time-points, and cardiac puncture at the terminal time-point. Blood samples were centrifuged at 11,000 rpm for 5 min, and the plasma supernatants collected and stored at -80°C until analysis by a validated method based on reversed -phase liquid chromatography coupled to tandem mass-spectrometric detection (LC-MS/MS). Livers were collected from the same animals at endpoint and, to prevent continuing metabolic activity, tissues were snap frozen using liquid nitrogen. […]
mg/kg or 100 mg/kg, and after 1.5 h, plasma, liver, and whole DRG were collected. All plasma and tissue specimens were stored at -80°C until further processing. […]
were collected at the final time point. […]
specimens were stored at -80°C until further processing. All tissues were homogenized with 5-mm […]
Finally, the beads were removed, and
WinNonlin version 8.0 (Certara). […]
of the data from the concentration-time curves.
Determination of drug levels. […]
column was maintained at 50°C.

OATP1B2 = test: Plasma level and DRG/plasma ratio of α-tocopherol in mice (biomarker of OATP1B2 function); type: in vivo, mouse; details: WT mice treated with the inhibitor; plasma
[2] = conventional chronic regimen; cited from earlier work
RS411 = test: Cytotoxicity of vincristine with or without nilotinib, MTT assay, RS411; type: cell-based, human; details: RS411 cells, vincristine alone, individual replicates
hOATP5A1 = hOATP5A1 (Homo sapiens, UniProt Q9H2Y9); test: Vincristine uptake screen, HeLa cells overexpressing hOATP5A1; type: in vitro ADME
Sequence of hOATP5A1 (Q9H2Y9 whole entry): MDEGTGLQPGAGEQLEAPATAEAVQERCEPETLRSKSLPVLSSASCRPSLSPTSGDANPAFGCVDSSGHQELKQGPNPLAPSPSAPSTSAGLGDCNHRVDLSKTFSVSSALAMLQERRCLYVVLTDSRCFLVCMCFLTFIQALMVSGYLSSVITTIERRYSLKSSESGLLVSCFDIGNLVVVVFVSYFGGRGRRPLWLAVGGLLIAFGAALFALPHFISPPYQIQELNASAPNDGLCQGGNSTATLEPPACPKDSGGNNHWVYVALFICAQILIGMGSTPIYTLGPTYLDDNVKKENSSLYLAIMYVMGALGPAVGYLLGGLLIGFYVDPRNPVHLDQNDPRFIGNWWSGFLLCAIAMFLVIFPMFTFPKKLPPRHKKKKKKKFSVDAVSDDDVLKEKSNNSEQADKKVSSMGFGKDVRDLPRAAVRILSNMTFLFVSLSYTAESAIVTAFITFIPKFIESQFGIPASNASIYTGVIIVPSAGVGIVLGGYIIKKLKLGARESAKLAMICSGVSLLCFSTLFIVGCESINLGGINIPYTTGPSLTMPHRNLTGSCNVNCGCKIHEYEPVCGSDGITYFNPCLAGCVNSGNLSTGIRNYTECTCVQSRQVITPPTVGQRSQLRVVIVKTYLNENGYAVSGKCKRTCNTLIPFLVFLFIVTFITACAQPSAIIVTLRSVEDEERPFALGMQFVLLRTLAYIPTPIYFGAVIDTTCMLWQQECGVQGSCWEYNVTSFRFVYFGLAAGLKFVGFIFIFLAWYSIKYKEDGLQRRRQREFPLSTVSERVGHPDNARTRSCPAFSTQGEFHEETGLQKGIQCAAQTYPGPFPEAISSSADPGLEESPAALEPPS
Procedure: (§1) Relative uptake is expressed as percentage change compared with empty vector controls (n = 4–14 per group). […] Human OATP1B1 and OATP1B3 transporter–overexpressed cells were used as positive controls; empty vector controls were used as the negative control. […] Mechanical allodynia (C), thermal hyperalgesia (D), and sciatic nerve maximal action potential amplitudes (E) are expressed as percentage change relative to baseline values (n = 6–8 per group). Statistical analysis was performed using a 2-way ANOVA with Bonferroni’s post hoc test. **P < 0.01, ***P < 0.001, ****P < 0.0001, compared with baseline values. […] Data are shown as mean ± SEM. […]
(§2) transfected with transporters of interest, including hOAT1, hOAT3, hOAT4, hOATP1A2, hOATP3A1, hOATP4A1, hOATP5A1, hOATP1C1, hOATP1B1, hOATP1B3, hOATP2B1, hOCT1, hOCT2, hOCTN1, hOCTN2, hASBT, hNTCP, hNPT1, hMATE1, hOSTα/β, hPEPT1, hPEPT2, rOatp1a1, rOatp1a4, rOatp1a5, rOatp1b2, rNtcp, rAsbt, rOat1, and rOct1. Cells were transfected with expression plasmid or vector control lacking any insert using Lipofectin reagent (Invitrogen). Sixteen hours thereafter, cells were washed with transport media (OPTIMEM, Invitrogen) and treated with radiolabeled drug. […] The cellular radioactivity was quantified by liquid scintillation counting as described above. […]

hOATP1A2 = hOATP1A2 (Homo sapiens, UniProt P46721); test: Substrate uptake in HEK293 cells overexpressing hOATP1A2; details: HEK293 OATP1A2
Sequence of hOATP1A2 (P46721 whole entry): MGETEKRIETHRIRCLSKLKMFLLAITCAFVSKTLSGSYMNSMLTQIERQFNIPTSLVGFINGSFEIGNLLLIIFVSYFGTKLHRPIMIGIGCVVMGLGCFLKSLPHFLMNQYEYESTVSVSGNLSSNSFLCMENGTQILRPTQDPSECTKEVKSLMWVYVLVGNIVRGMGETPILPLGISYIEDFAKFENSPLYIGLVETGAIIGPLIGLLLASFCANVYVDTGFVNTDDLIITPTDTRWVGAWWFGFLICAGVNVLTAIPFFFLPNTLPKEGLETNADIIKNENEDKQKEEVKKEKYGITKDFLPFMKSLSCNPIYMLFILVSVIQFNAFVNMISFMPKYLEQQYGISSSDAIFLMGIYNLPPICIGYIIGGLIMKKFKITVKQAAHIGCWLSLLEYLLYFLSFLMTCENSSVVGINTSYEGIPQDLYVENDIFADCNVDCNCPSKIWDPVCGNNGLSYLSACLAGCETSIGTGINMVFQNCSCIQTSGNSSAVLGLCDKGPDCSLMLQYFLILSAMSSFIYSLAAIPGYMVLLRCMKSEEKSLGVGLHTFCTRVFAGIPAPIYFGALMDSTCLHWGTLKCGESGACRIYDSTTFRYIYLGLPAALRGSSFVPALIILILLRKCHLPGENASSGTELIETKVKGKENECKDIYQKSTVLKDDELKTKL
From the text: transfected with transporters of interest, including hOAT1, hOAT3, hOAT4, hOATP1A2, hOATP3A1, hOATP4A1, hOATP5A1, hOATP1C1, hOATP1B1, hOATP1B3, hOATP2B1, hOCT1, hOCT2, hOCTN1, hOCTN2, hASBT, hNTCP, hNPT1, hMATE1, hOSTα/β, hPEPT1, hPEPT2, rOatp1a1, rOatp1a4, rOatp1a5, rOatp1b2, rNtcp, rAsbt, rOat1, and rOct1. Cells were transfected with expression plasmid or vector control lacking any insert using Lipofectin reagent (Invitrogen). Sixteen hours thereafter, cells were washed with transport media (OPTIMEM, Invitrogen) and treated with radiolabeled drug. At various time intervals, cells were washed three times with ice-cold PBS and then lysed with 1% sodium dodecyl sulfate. The cellular radioactivity was quantified by liquid scintillation counting as described above. Similar analyses were performed in HEK293 cells transfected with hOATP1A2, hOATP1C1, mMATE1, and hMATE1, with cells seeded in poly lysine pre-coated 12-well plates. For hOATP1A2 and hOATP1C1, transient transfections were performed with either an empty vector, OATP1A2, or OATP1C1 using Lipofectamine 2000 according to the manufacturers protocol (Invitrogen). At 48 h post transfection, […]
(§3) Samples were analyzed using real-time quantitative PCR and Taqman Probes (Applied Biosystems). The relative gene expression was determined using the ΔΔCt method, and normalized to the mouse or human housekeeping gene, GAPDH. […]

hOAT4 = hOAT4 (Homo sapiens, UniProt Q9NSA0); test: Vincristine uptake screen, HeLa cells overexpressing hOAT4; type: in vitro ADME
Sequence of hOAT4 (Q9NSA0 whole entry): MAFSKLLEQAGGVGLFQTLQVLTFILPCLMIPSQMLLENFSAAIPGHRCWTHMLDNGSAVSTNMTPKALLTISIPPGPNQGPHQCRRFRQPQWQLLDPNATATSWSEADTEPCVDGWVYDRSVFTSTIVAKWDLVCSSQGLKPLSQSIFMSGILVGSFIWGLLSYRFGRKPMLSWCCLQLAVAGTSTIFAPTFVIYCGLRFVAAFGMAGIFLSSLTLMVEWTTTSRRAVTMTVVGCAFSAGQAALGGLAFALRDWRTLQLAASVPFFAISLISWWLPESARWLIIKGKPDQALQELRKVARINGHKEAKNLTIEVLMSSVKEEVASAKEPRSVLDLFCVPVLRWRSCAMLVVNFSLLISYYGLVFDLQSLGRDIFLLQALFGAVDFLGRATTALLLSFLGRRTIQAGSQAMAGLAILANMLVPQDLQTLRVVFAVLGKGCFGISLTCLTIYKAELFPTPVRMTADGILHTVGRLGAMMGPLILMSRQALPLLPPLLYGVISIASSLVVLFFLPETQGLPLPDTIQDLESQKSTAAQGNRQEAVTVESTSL
Procedure: as §1
as §2, with “(Invitrogen).” for “(Invitrogen). Sixteen hours thereafter, cells were washed with transport media (OPTIMEM, Invitrogen) and treated with radiolabeled drug.”
as §3

hASBT = hASBT (Homo sapiens, UniProt Q12908); test: Vincristine uptake screen, HeLa cells overexpressing hASBT; type: in vitro ADME
Sequence of hASBT (Q12908 whole entry): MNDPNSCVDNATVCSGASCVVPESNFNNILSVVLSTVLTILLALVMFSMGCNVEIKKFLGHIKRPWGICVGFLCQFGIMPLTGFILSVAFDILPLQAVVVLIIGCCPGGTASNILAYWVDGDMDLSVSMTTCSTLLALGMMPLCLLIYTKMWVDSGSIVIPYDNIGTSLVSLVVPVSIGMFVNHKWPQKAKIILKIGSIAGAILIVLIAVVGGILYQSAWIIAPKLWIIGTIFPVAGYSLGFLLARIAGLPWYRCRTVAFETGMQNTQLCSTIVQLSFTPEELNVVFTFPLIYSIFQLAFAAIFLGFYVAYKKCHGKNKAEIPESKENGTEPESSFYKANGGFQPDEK
Procedure: as §1
as §2, with “(Invitrogen).” for “(Invitrogen). Sixteen hours thereafter, cells were washed with transport media (OPTIMEM, Invitrogen) and treated with radiolabeled drug.”
as §3

CCRF = test: Cytotoxicity of vincristine with or without nilotinib, MTT assay, CCRF; type: cell-based, human; details: CCRF cells, vincristine alone, individual replicates

Row | Structure (SMILES) | concentration at […] ([1]; 25 mg/kg) | concentration at […] ([1]; 100 mg/kg) | Plasma concentration of nilotinib ([1]; 25mg/kg) | Plasma concentration of nilotinib ([1]; 100mg/kg) | Level of α-tocopherol (% of wild-type baseline), Plasma (OATP1B2) | Median time from start of therapy to onset of QT events [2] | Range of time from start of therapy to onset of QT events [2] | IC50 (RS411) | Vincristine uptake (% of vector control) (hOATP5A1) | Contribution of transporter to cellular uptake of vincristine (hOATP1A2) | Vincristine uptake (% of vector control) (hOAT4) | Vincristine uptake (% of vector control) (hASBT) | IC50 (CCRF)
1 | Cc1cn(-c2cc(NC(=O)c3ccc(C)c(Nc4nccc(-c5cccnc5)n4)c3)cc(C(F)(F)F)c2)cn1 [Nilotinib, nilotinib] | 8020 ng/mL | 25800 ng/mL | 9973.68 ng/mL and 13343.6 ng/mL | 22063.7 ng/mL and 33922 ng/mL | 242.352% and 175.541% and 133.994% | > 14 months | 2–68 months | – | – | – | – | – | –
2 | CC[C@]1(O)C[C@H]2CN(CCc3c([nH]c4ccccc34)[C@@](C(=O)OC)(c3cc4c(cc3OC)N(C=O)[C@H]3[C@@](O)(C(=O)OC)[C@H](OC(C)=O)[C@]5(CC)C=CCN6CC[C@]43[C@@H]65)C2)C1 [Vincristine, vincristine] | – | – | – | – | – | – | – | 4.81 nM and 6.23 nM and 4 nM and 8.42 nM and 6.45 nM and 7.46 nM and 5.33 nM and 4.58 nM and 7.35 nM | 109.00 % of vector control and 94.00 % of vector control and 90.00 % of vector control and 76.00 % of vector control and 77.00 % of vector control and 86.00 % of vector control and 80.00 % of vector control and 85.00 % of vector control | do not appreciably contribute to the cellular uptake of vincristine | 107.00 % of vector control and 81.00 % of vector control and 79.00 % of vector control and 90.00 % of vector control and 80.00 % of vector control and 99.00 % of vector control and 111.00 % of vector control and 113.00 % of vector control | 91.00 % of vector control and 82.00 % of vector control and 85.00 % of vector control and 81.00 % of vector control and 114.00 % of vector control and 83.00 % of vector control and 69.00 % of vector control and 101.00 % of vector control | 4.56 nM and 4.49 nM and 1.65 nM and 7.48 nM and 6.4 nM and 5.53 nM and 3.87 nM and 3.24 nM and 7.33 nM
